Measured values as given in patent US20240082237A1, “PHARMACEUTICAL COMPOSITIONS COMPRISING A DEXTROMETHORPHAN COMPOUND AND QUINIDINE FOR THE TREATMENT OF AGITATION IN DEMENTIA” (priority 2014, published 2024).
Where two headings read alike, the source gives them in different places.

Tests used:
[1] = target: T1, norepinephrine transporter (Homo sapiens, UniProt P23975); conditions: affinity; cited from earlier work
[2] = target: sigma-1 (Homo sapiens, UniProt Q99720); conditions: sigma-1 agonist; cited from earlier work
[3] = target: N-methyl-D-aspartate (NMDA) receptor; conditions: weak uncompetitive antagonist; cited from earlier work
[4] = target: T1, norepinephrine transporter; conditions: inhibits uptake of norepinephrine; cited from earlier work
[5] = system: healthy subjects; assay: Example 6 Phase 1 drug interaction study: safety (adverse events); type: in vivo, human
Method: Safety was evaluated in all subjects throughout the study and included adverse event (AE) reporting, electrocardiograms (ECGs), laboratory evaluations, physical examinations, and vital signs. The Columbia-Suicide Severity Rating Scale (C-SSRS) was used to prospectively assess suicidal ideation and behavior throughout the study.
Safety: Safety was evaluated in all subjects throughout the study and included adverse event (AE) reporting, electrocardiograms (ECGs), laboratory evaluations, physical examinations, and vital signs. The Columbia-Suicide Severity Rating Scale (C-SSRS) was used to prospectively assess suicidal ideation and behavior throughout the study as part of the safety assessments per the FDA guidance, “Suicidal Ideation and Behavior: Prospective Assessment of Occurrence in Clinical Trials.”
Safety: Safety variables, including incidence of adverse events, vital signs, ECG parameters, and clinical laboratory results, were summarized by treatment. Responses to the C-SSRS questionnaire were listed for each subject. Individual subject profiles were presented for any questions with an abnormal response.

[6] = clinical
Text: (§1) Subjects attended a Screening visit at the clinic within 14 days prior to enrolment (Day 1). If eligible, the subjects were enrolled on Day 1 to one of 4 Groups (Day 1 occurred on different days for different groups to ensure the availability of beds in the units for those dates). Subjects returned to the clinic daily for out-patient dosing until the second day of (morning) PK sampling (this day differed between treatment groups). After the second day (morning) PK sampling, subjects were admitted to the clinic that night before (full) PK sampling the next day. Subjects stayed in the in-patient unit until the last day of PK sampling (length of time differed between treatment groups based on the amount of time for the study medications to reach steady state).
(§2) Samples were collected for PK evaluation up to 36 hours post the last dose of study medication.
(§3) Paroxetine 20 mg tablets. Duloxetine 20 mg capsules. Subjects received study medication as per the study schedule, provided above in Methodology.
(§4) Each dose (consisting of one capsule/tablet) was administered orally with 240 mL of room temperature water. Morning doses were preceded by an overnight fast (i.e., at least 8 hours) from food (not including water) and evening doses were preceded by at least a 2-hour fast from food. All doses were followed by a fast from food (not including water) for at least 2 hours post-dose.
(§5) Pre-dose and 0.5, 1, 2, 3, 4, 6, 8, and 12 hours after the morning dose on the last day of single medication dosing. For Group 1 only, as paroxetine was administered once a day, an additional sample was taken at 24 hours after the last day of single dosing (prior to the first combined dosing).
(§6) Pre-dose and 0.5, 1, 2, 3, 4, 6, 8, 12, 24, and 36 hours after the morning dose on the last day of combined dosing
(§7) Prior to the morning dose on Day 4 (for Groups 2 and 4 only) and on each of the 2 days prior to the last day of single medication dosing and the last day of combined dosing.
(§8) Mean plasma concentration-time profiles were plotted by treatment on linear and semi-logarithmic scales. In addition, non-compartmental PK parameters were derived. […] The point estimates and confidence limits were determined using the log transformed data and then transformed back to the original scale. The analysis was performed using analysis of variance with the terms Subject and Treatment.

[7] = clinical; remark: listed apart in the source
Text: as §1, §2, §3, §4, §5, §6, §7, §8

[8] = system: receptors responsible for modulation of glutamate, monoamine, sigma-1, and nicotinic cholinergic pathways; assay: Pharmacology studies with deuterated DM
[9] = target: T2, CYP2D6 (Homo sapiens, UniProt P10635); conditions: in vitro metabolism, various species including human
[10] = Toxicology studies with d6-DM and 13-week toxicity study with d6-DM/Q; type: in vivo; conditions: at comparable exposures; adverse clinical signs associated with CNS effects
[11] = target: T2, CYP2D6; conditions: cited from earlier work
[12] = Group 3, Day 13 (combined dosing duloxetine + AVP-786), plasma, mean
[13] = Group 3, Day 13 (combined dosing duloxetine + AVP-786), plasma, median
[14] = Group 4, Day 8 (AVP-786 single treatment), plasma, mean
[15] = Group 4, Day 8 (AVP-786 single treatment), plasma, median
[16] = Group 4, Day 13 (combined dosing AVP-786 + duloxetine), plasma, mean
[17] = Group 4, Day 13 (combined dosing AVP-786 + duloxetine), plasma, median
[18] = Group 4: AVP-786-30/4.75 BID + duloxetine 20 mg BID vs AVP-786 alone, steady state, N 11
[19] = Group 1, Day 20 (combined dosing paroxetine + AVP-786), plasma, mean
[20] = Group 1, Day 20 (combined dosing paroxetine + AVP-786), plasma, median
[21] = Group 2, Day 8 (AVP-786 single treatment), plasma, mean
[22] = Group 2, Day 8 (AVP-786 single treatment), plasma, median
[23] = Group 2, Day 20 (combined dosing AVP-786 + paroxetine), plasma, mean
[24] = Group 2, Day 20 (combined dosing AVP-786 + paroxetine), plasma, median
[25] = Group 2: AVP-786-30/4.75 BID + paroxetine 20 mg once daily vs AVP-786 alone, steady state, N 14

T2 sequence (P10635 whole entry): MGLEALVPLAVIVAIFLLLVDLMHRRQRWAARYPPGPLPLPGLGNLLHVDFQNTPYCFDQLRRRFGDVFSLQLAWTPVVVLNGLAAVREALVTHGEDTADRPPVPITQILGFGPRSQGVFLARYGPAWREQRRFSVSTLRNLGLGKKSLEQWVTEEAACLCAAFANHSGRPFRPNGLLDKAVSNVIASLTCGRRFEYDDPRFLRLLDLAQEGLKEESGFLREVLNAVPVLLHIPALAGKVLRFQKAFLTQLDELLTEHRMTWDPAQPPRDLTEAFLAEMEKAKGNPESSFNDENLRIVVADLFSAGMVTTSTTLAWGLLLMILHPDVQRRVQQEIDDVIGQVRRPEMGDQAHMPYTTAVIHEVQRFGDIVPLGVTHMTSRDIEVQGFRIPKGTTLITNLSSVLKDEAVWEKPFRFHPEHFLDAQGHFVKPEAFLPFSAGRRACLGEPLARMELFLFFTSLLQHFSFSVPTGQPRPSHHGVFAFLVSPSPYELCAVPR
Chain of sigma-1 (Q99720 whole entry): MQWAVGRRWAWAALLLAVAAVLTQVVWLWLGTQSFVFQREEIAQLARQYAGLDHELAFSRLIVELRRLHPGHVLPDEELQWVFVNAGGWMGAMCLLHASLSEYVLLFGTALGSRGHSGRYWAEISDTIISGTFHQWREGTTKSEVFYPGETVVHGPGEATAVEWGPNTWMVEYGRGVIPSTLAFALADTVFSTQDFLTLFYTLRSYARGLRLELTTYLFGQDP
T1 sequence (P23975 whole entry, species assumed): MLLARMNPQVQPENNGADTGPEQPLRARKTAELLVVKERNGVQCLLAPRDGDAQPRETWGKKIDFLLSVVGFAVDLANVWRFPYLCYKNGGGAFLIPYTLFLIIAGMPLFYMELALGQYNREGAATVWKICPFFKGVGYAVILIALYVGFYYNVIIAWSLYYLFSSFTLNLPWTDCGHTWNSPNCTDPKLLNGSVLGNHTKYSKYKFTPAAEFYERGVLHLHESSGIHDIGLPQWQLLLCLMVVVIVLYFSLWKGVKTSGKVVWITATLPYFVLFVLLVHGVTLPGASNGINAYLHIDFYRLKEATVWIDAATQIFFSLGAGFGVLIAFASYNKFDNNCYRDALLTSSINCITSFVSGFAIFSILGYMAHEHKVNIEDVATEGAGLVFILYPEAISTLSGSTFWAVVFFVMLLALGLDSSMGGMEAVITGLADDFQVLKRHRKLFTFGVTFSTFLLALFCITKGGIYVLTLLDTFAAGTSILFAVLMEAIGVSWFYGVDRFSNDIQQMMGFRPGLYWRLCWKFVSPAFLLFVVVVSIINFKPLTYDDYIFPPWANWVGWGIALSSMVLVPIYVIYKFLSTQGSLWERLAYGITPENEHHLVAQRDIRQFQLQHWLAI

SMILES: COc1ccc2c(c1)[C@@]13CCCC[C@H]1[C@@H](C2)N(C)CC3 [DM, (+)-3-methoxy-N-methylmorphinan]
- Ki [1]: 13 µM
- Ki [2]: 0.2 µM
- Ki [3]: 1.5 µM

SMILES: CNCC[C@H](Oc1cccc2ccccc12)c1cccs1 [Duloxetine, duloxetine, reference compound]
- treatment-emergent AEs reported, subjects ([5]; Groups 3 and 4, healthy subjects): 43%
- AUC0-12 ([6]; both, human, in vivo): 194 ng·h/mL
- t1/2 ([6]; both, human, in vivo): 5.04 h
- Cmax ([6]; both, human, in vivo, Cmax): 26.1 ng/mL
- Tmax ([6]; both, human, in vivo, Tmax): 4 h

SMILES: Fc1ccc([C@@H]2CCNC[C@H]2COc2ccc3c(c2)OCO3)cc1 [Paroxetine, paroxetine, reference compound]
- treatment-emergent AEs reported, subjects ([5]; Groups 1 and 2, healthy subjects): 50%
- AUC(0-t) ([7]; both, human, in vivo, AUC0-24 (PAR)): 452 ng·h/mL
- Cmax ([7]; both, human, in vivo, Cmax): 29.5 ng/mL
- Tmax ([7]; both, human, in vivo, Tmax): 4 h

SMILES: C=C[C@H]1C[N@]2CC[C@@H]1C[C@@H]2[C@@H](O)c1ccnc2ccc(OC)cc12 [Quinidine, quinidine]
- AUC0-12 ([6]; both, human, in vivo): 160 ng·h/mL
- Cmax ([6]; both, human, in vivo): 24.9 ng/mL
- Tmax ([6]; both, human, in vivo): 1.00 h
- AUC0-12 ([7]; both, human, in vivo): 146 ng·h/mL
- Cmax ([7]; both, human, in vivo): 23.1 ng/mL
- Tmax ([7]; both, human, in vivo): 1.00 h

SMILES: [2H]C([2H])([2H])N1CCC23CCCCC2C1Cc1ccc(O)cc13 (stereo not shown) [d3-DX, d3-dextrorphan]
- AUC0-12 [6, 12]: 1295 ng·h/mL
- Cmax [6, 12]: 128 ng/mL
- t1/2 [6, 12]: 21.7 h
- Tmax [6, 13]: 3.00 h
- AUC0-12 [6, 14]: 1267 ng·h/mL
- Cmax [6, 14]: 127 ng/mL
- Tmax [6, 15]: 3.00 h
- AUC0-12 [6, 16]: 1224 ng·h/mL
- Cmax [6, 16]: 121 ng/mL
- t1/2 [6, 16]: 20.0 h
- Tmax [6, 17]: 3.00 h
- AUC0-12 Ratio of LS Means [6, 18]: 97.6%
- Cmax Ratio of LS Means [6, 18]: 96.3%
- steady state systemic exposure relative to AVP-786 alone ([7]; AVP-786 co-administered with paroxetine): approximately 75%
- AUC0-12 [7, 19]: 820 ng·h/mL
- Cmax [7, 19]: 87.2 ng/mL
- Tmax [7, 20]: 1.00 h
- AUC0-12 [7, 21]: 1142 ng·h/mL
- Cmax [7, 21]: 117 ng/mL
- Tmax [7, 22]: 3.00 h
- AUC0-12 [7, 23]: 820 ng·h/mL
- Cmax [7, 23]: 94.1 ng/mL
- Tmax [7, 24]: 0.50 h
- AUC0-12 Ratio of LS Means [7, 25]: 71.6%
- Cmax Ratio of LS Means [7, 25]: 77.1%

SMILES: [2H]C([2H])([2H])Oc1ccc2c(c1)[C@]13CCCC[C@@H]1[C@H](C2)N(C([2H])([2H])[2H])CC3 [d6-DM]
- AUC0-12 [6, 12]: 692 ng·h/mL
- Cmax [6, 12]: 72.7 ng/mL
- t1/2 [6, 12]: 13.3 h
- AUC0-12 [6, 14]: 540 ng·h/mL
- Cmax [6, 14]: 59.0 ng/mL
- Tmax [6, 15]: 3.00 h
- AUC0-12 [6, 16]: 605 ng·h/mL
- t1/2 [6, 16]: 12.6 h
- Tmax [6, 17]: 3.00 h
- metabolites identified compared to DM [9]: no unique metabolites
- dose-limiting toxicities (DLTs) of d6-DM and DM [10]: comparable
- AUC0-12 [7, 19]: 943 ng·h/mL
- Cmax [7, 19]: 93.5 ng/mL
- Tmax [7, 20]: 2.00 h
- AUC0-12 [7, 21]: 467 ng·h/mL
- Cmax [7, 21]: 54.6 ng/mL
- Tmax [7, 22]: 3.00 h
- Cmax [7, 23]: 100 ng/mL
- t1/2 [7, 23]: 17.3 h
- Tmax [7, 24]: 3.00 h

SMILES: CC(CCc1ccccc1)NCC(O)c1ccc(O)c(C(N)=O)c1 (stereo not shown) [labetalol]
- Ki [11]: ≤ 50 µM

SMILES: Cc1cccc(C)c1OCC(C)N (stereo not shown) [mexiletine]
- Ki [11]: ≤ 50 µM

SMILES: CNCCC=C1c2ccccc2CCc2ccccc21 [nortriptyline]
- Ki [11]: ≤ 50 µM

SMILES: C=CCOc1ccccc1OCC(O)CNC(C)C (stereo not shown) [oxprenolol]
- Ki [11]: ≤ 50 µM
